In patent publication US10828300B2, “Substituted 2,4-diaminopyrimidines as kinase inhibitors” (Celgene CAR LLC, priority 2008, dated 2020):
“Also recorded” adds a separate entry of the source. Each block holds one compound with its values, some of them ahead of it.

Assays:
[1] = molecular target: T1, BTK (Homo sapiens (Human), UniProt Q06187); assay: Washout experiment with Ramos cells (PLCγ2 phosphorylation); assay type: cell-based; details: Ramos washout assay, 100 nM compound for 1 hour
Procedure: Washout Experiment with Ramos Cells
Ramos cells were serum starved for one hour in RPMI media +1% glutamine at 37° C. After starvation, Ramos cells were treated with 100 nM compound diluted in serum free RPMI media for 1 hour. After compound treatment, the media was removed and cells were washed with compound-free media. Subsequently, Ramos cells were washed every 2 hours and resuspended in fresh compound-free media. Cells were collected at specified timepoints, treated with 1 ug anti-human IgM (Southern Biotech cat #2022-01) for 10 minutes on ice to induce BCR signaling and then washed in PBS. Ramos cells were then lysed in Cell Extraction Buffer (Invitrogen FNN0011) supplemented with Roche complete protease inhibitor tablets (Roche 11697498001) and phosphatase inhibitors (Roche 04 906 837 001) and 18 ug total protein lysate was loaded in each lane. Inhibition of BTK kinase activity was assayed by measuring its substrate (PLCγ2) phosphorylation by western blot with phospho-specific antibodies from Cell Signaling Technologies cat#3871. The results of this experiment with compounds I-2, I-4 and I-7 are depicted in FIGS. 1, 2 and 3.

[2] = molecular target: TEC kinase (Homo sapiens (Human), UniProt P42680); assay: Mass spectrometry for TEC kinase (tryptic digest); assay type: binding, Homo sapien; details: 3 hrs at 10× excess, peptide GCLLNFLR
TEC kinase, sequence (P42680 whole entry): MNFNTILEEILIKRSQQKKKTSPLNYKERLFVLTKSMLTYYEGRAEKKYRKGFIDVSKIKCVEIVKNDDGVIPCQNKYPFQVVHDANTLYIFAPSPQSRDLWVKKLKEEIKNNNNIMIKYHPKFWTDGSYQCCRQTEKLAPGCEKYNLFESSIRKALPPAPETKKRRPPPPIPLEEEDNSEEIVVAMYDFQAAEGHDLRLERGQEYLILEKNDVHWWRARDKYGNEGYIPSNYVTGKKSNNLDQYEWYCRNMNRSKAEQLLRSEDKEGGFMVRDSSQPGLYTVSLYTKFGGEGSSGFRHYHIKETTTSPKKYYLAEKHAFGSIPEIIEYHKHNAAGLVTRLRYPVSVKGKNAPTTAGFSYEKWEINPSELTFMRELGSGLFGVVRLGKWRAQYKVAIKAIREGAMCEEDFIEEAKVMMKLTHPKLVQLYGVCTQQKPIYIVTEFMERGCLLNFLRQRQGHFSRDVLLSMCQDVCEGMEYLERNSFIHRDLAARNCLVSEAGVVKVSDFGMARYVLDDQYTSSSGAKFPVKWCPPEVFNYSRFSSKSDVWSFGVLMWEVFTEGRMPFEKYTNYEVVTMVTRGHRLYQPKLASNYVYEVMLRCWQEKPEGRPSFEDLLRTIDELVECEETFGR
Procedure: Mass Spectrometry for TEC Kinase (Compound I-2)
(§1) TEC kinase (45 pmols; Invitrogen) was incubated with (I-2) (450 pmols) for 3 hrs at 10× excess prior to tryptic digestion. Iodoacetamide was used as the alkylating agent after compound incubation. […] For tryptic digests a 5 ul aliquot (7.5 pmols) was diluted with 15 ul of 0.1% TFA prior to micro C18 Zip Tipping directly onto the MALDI target using alpha cyano-4-hydroxy cinnamic acid as the matrix (5 mg/ml in 0.1% TFA:Acetonitrile 50:50).
(§2) For tryptic digests the instrument was set in Reflectron mode with a pulsed extraction setting of 2200. Calibration was done using the Laser Biolabs Pep Mix standard ([…], 1296.69, 1672.92, 2093.09, 2465.20). For CID/PSD analysis the peptide was selected using cursors to set ion gate timing and fragmentation occurred at a laser power about 20% higher and He was used as the collision gas for CID. Calibration for fragments was done using the P14R fragmentation calibration for the Curved field Reflectron.
Mass Spectrometry for TEC Kinase (Compound I-4)
as §1, with “(I-4)” for “(I-2)”
as §2, with “1800.” for “2200.”
Mass Spectrometry for TEC Kinase (Compound I-7) […]

[3] = molecular target: Erbb4 kinase domain (Homo sapiens (Human), UniProt Q15303); assay: Mass spectrometry for ERBB4 (intact protein); assay type: binding; details: 60 minutes at 10-fold excess of compound
Erbb4 kinase domain, sequence (Q15303 718-985): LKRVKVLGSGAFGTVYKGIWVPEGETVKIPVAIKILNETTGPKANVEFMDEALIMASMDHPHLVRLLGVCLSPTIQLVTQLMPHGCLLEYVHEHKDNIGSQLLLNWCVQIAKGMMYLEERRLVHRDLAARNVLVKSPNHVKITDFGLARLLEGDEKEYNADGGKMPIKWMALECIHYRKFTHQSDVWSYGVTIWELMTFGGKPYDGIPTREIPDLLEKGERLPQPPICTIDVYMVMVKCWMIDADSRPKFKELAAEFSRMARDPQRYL
Procedure: Mass Spectrometry for ERBB4
Erbb4 kinase domain (Upstate) was incubated with compound for 60 minutes at 10-fold excess of compound I-4 and I-11 to protein. 1 μl aliquots of the samples (total volume of 4.24 ul) were diluted with 10 μl of 0.1% TFA prior to micro C4 ZipTipping directly onto the MALDI target using Sinapinic acid as the desorption matrix (10 mg/ml in 0.1% TFA:Acetonitrile 50:50). For intact protein mass measurement the instrument was set in Linear mode using a pulsed extraction setting of 16,952 for the myoglobin standard used to calibrate the instrument (Shimadzu Axima TOF^2).
Intact ErbB4 protein occurs at MH+ of 35850 with corresponding sinapinic (matrix) adducts occurring about 200 Da higher. A stochiometric incorporation of the test compound (I-4 and I-11) (Mw of 410 Da) produced a new mass peak which is approximately 410 Da higher (MH+ of 36260).

[4] = molecular target: T1, BTK; assay: Mass spectrometry for BTK (intact protein, covalent modification); assay type: binding
Procedure: Mass Spectrometry for BTK
Intact BTK was incubated for 1 hr at a 10× fold excess of I-7 to protein. Aliquots (2 μl) of the samples were diluted with 10 μl of 0.1% TFA prior to micro C4 ZipTipping directly onto the MALDI target using Sinapinic acid as the desorption matrix (10 mg/ml in 0.1% TFA:Acetonitrile 20:80).

[5] = molecular target: T1, BTK; assay: BTK occupancy from in vitro samples by ELISA (Ramos cells, probe I-215); assay type: cell-based; details: probe I-215 ELISA
From the text: Measuring BTK occupancy from in vitro samples by ELISA
In order to determine the amount of free BTK in cell or tissue lysates, an ELISA protocol was employed that utilizes a biotinylated probe compound that binds only to free, unoccupied BTK. The conjugated biotin is captured on a streptavidin-coated ELISA plate and detected with a mouse anti-BTK antibody (Becton Dickinson, Franklin Lakes, N.J., USA) and a secondary goat anti-mouse HRP antibody (Zymed, South San Francisco, Calif., USA).
All samples were prepared with equal concentrations of Biorad lysis buffer (Hercules, Calif., USA), 0.5% bovine serum albumin in PBS with 0.05% Tween-20 to give a final concentration of 1 μM I-215. Samples were incubated in a mixing plate for 1 hr at room temperature while shaking to allow probe compound I-215 to bind to free BTK. After incubation with I-215, samples were added to a washed, streptavidin-coated ELISA plate (Pierce, Rockford, Ill., USA) and incubated for 1 hr at room temperature while shaking. The plate was then washed with PBS containing 0.05% Tween-20 using an automatic plate washer. Anti-BTK antibody was prepared at 1:1000 dilution in 0.5% BSA in PBS (0.05% Tween-20) and added to the ELISA plate. The plate was incubated for 1 hr at room temperature while shaking. The plate was washed as described above and the secondary HRP antibody was prepared at 1:5000 dilution in 0.5% BSA in PBS (0.05% Tween-20). The plate was incubated and washed as described above. TMB was added to the plate, and OD650 was monitored until reaching 1 OD unit. The reaction was then stopped with addition of H2SO4. The plate was analyzed using Gen 5 software, and a 4 Parameter Logistic curve was employed to quantitate samples. Recombinant BTK (Invitrogen, Carlsbad, Calif., USA) was used for the standard curve.
A concentration designated as “A” is greater than 1 nM; a concentration designated as “B” is greater than 10 nM; and a concentration designated as “C” is greater than 50 nM.

[6] = molecular target: T1, BTK; assay: Washout experiment with I-7 and probe compound I-215 in Ramos cells; assay type: cell-based; details: 0.1 μM for 1 hour, then washout, probe I-215
Procedure: Washout Experiment with I-7 and Probe Compound I-215
Ramos cells were incubated with 0.1 μM I-7 or a reversible BTK inhibitor control compound in serum free media for 1 hour at 37° C. The cells were then washed in compound-free media and lysed 0, 4, 6, or 8 hours after compound removal. Cell lysates were incubated with 1 μM I-215 for 1 hour at room temperature, then overnight at 4° C. with streptavidin-coupled agarose beads. Protein was boiled off the beads and BTK association was assessed by western blot. […] In contrast, with the reversible inhibitor control, 45% of BTK protein is unbound and available to the probe at 0 hours and by 4 hours 100% of BTK protein is unbound and available to bind the probe. All samples were normalized to the DMSO-treated cells harvested at 0 hours.

[7] = molecular target: JAK3 kinase (Homo sapiens (Human), UniProt P52333); assay: Mass spectrometry for Janus-3 kinase (JAK3), tryptic digest; assay type: binding, homosapien; details: 3 hrs at 10× excess, peptide LVMEYLPSGCLR
JAK3 kinase, sequence (P52333 whole entry): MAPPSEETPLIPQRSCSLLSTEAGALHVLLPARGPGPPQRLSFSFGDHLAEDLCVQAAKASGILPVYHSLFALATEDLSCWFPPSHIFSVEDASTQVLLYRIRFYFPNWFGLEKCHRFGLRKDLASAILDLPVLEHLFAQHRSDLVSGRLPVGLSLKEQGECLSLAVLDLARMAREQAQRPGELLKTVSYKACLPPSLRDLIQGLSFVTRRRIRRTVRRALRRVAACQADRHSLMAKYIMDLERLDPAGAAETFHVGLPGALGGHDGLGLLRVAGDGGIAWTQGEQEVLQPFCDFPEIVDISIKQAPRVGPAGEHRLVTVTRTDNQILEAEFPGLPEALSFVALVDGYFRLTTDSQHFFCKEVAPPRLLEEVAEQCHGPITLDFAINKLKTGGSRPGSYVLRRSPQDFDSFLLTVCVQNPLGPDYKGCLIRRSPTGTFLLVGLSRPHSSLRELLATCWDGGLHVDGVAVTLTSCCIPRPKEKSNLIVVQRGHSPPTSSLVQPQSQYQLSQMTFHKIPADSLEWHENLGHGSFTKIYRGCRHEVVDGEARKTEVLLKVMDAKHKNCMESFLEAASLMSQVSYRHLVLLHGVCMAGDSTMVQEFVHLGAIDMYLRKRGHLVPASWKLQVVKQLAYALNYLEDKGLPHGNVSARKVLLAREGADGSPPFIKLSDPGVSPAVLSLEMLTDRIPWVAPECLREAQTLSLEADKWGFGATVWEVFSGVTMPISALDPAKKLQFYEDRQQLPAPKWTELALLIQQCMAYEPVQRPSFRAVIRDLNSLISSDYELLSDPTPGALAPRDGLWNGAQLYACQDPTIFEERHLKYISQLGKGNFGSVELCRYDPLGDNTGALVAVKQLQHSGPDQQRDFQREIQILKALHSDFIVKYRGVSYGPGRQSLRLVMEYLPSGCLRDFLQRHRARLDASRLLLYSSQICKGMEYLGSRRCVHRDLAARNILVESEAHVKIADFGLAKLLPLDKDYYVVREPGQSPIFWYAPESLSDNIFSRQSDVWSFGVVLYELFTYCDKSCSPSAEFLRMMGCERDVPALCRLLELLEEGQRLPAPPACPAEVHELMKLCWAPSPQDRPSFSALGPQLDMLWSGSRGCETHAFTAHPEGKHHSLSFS
Procedure: Mass Spectrometry for Janus-3 Kinase (JAK3)
JAK3 kinase (33 pmols; Invitrogen) was incubated with (I-7) (327 pmols) for 3 hrs at 10× excess prior to tryptic digestion. Iodoacetamide was used as the alkylating agent after compound incubation. For tryptic digests a 5 ul aliquot (5.5 pmols) was diluted with 15 ul of 0.1% TFA prior to micro C18 Zip Tipping directly onto the MALDI target using alpha cyano-4-hydroxy cinnamic acid as the matrix (5 mg/ml in 0.1% TFA:Acetonitrile 50:50).
as §2

[8] = molecular target: T1, BTK; assay: BTK Ramos cellular assay (phosphorylation of BTK substrate PLCγ2); assay type: cell-based; details: Ramos cells, anti-IgM stimulated, read-out: BTK Inhibition (BTK Ramos Cellular Inhibition Data)
Procedure: Ramos cells were grown in suspension in T225 flasks, spun down, resuspended in 50 ml serum-free media and incubated for 1 hour. […] Ramos cells were incubated with compound for 1 hour, washed again and resuspended in 100 ul serum-free media. Cells were then stimulated with 1 μg of goat F(ab′)2 Anti-Human IgM and incubated on ice for 10 minutes to activate B cell receptor signaling pathways. After 10 minutes, the cells were washed once with PBS and then lysed on ice with Invitrogen Cell Extraction buffer. 16 μg total protein from lysates were loaded on gel and blots were probed for phosphorylation of the BTK substrate PLCγ2.

[9] = molecular target: EGFR-WT (Homo sapiens (Human), UniProt P00533); assay: Omnia assay for potency assessment against EGFR (WT); assay type: biochemical; details: read-out: EGFR Wild Type Inhibition
EGFR-WT, sequence (P00533 25-1210): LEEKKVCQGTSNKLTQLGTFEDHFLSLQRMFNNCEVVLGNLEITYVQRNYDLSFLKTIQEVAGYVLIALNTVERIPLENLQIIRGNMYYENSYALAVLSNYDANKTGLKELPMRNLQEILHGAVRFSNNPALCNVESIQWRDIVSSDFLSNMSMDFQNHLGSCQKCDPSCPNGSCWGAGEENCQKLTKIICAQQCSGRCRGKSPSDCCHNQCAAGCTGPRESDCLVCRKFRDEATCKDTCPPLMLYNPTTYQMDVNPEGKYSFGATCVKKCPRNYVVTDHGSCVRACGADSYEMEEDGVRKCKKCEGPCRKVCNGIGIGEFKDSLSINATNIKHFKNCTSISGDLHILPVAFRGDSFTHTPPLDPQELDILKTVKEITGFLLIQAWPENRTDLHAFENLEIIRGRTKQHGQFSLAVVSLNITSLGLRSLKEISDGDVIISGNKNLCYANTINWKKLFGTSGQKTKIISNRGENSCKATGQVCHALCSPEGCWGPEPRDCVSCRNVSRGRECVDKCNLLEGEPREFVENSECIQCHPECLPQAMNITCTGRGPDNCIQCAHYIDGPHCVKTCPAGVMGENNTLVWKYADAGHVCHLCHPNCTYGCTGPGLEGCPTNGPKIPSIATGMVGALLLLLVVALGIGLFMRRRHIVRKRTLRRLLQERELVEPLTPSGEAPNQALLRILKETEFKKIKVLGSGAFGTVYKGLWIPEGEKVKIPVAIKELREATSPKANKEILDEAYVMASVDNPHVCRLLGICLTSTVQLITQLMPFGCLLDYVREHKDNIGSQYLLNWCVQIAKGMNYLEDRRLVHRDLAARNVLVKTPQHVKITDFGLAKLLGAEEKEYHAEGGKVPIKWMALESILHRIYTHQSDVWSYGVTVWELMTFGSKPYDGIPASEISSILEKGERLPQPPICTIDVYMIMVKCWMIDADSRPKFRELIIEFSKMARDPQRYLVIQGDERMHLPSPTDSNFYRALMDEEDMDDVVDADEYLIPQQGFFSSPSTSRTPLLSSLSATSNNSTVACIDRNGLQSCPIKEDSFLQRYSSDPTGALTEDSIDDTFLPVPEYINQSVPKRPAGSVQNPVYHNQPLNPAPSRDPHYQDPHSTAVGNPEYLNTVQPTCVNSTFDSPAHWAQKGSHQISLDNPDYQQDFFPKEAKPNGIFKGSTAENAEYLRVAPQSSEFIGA

[10] = molecular target: T1, BTK; assay: Omnia assay protocol for potency assessment against BTK; assay type: biochemical
From the text: Omnia Assay Protocol for Potency Assessment Against BTK

[11] = molecular target: ITK (Homo sapiens (Human), UniProt Q08881); assay: Omnia assay for potency assessment against active forms of ITK kinase; assay type: biochemical; details: [ITK]=10 nM, [ATP]=25 μM, [Y6-Sox]=10 μM; read-out: ITK Inhibition
ITK, sequence (Q08881 whole entry): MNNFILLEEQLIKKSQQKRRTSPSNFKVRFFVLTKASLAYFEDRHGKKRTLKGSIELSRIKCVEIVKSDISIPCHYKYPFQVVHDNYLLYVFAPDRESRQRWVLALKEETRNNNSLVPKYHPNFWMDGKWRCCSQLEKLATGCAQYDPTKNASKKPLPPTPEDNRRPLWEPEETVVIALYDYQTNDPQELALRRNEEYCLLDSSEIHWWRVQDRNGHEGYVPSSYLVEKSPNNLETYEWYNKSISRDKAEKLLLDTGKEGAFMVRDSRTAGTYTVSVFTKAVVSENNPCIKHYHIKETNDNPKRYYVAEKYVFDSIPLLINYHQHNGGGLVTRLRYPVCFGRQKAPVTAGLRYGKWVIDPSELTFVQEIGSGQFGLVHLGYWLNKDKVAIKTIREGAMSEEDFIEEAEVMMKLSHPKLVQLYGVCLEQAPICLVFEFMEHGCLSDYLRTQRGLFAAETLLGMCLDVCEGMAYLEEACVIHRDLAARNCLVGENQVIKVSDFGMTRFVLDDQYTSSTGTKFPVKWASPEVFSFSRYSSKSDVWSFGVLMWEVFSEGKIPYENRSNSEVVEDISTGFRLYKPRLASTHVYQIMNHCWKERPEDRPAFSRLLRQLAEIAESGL

T1 sequence (Q06187 whole entry): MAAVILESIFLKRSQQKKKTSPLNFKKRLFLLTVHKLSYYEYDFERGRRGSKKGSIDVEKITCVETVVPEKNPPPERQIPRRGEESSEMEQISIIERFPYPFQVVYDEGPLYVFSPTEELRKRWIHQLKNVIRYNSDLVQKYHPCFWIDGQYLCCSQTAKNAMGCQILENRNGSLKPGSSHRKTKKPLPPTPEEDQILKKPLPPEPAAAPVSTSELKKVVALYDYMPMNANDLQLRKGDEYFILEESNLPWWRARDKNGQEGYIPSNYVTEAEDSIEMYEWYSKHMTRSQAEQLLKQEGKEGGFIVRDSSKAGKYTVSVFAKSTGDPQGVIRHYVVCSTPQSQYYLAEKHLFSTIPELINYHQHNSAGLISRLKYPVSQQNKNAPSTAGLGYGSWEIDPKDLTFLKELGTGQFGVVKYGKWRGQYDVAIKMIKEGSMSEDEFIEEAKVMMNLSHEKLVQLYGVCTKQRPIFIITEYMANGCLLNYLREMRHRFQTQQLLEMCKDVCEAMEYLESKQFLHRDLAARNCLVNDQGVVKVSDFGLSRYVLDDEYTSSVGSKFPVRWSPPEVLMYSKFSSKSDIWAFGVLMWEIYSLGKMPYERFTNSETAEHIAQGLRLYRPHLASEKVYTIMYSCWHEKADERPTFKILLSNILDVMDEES

IC50 [8]: 0.1 to 1 µM
IC50 [9]: < 0.01 µM
IC50 ([10]; Omnia assay, [BTK]=5 nM, read-out: BTK Inhibition): < 0.01 µM
IC50 [11]: 0.01 to 0.1 µM
SMILES: C=CC(=O)Nc1cccc(Oc2nc(Nc3ccc(OC)nc3)ncc2C(=O)NC2CC2)c1 [Compound I-176, 4-(3-acrylamidophenoxy)-2-(6-methoxypyridin-3-ylamino)-pyrimidine-5-carboxylic acid cyclopropylamide]

biochemical activity against BTK [10]: biochemically inactive against BTK
SMILES: CCC(=O)Nc1cccc(Nc2nc(Nc3ccccc3)ncc2C)c1 [I^R-7, N-(3-(5-methyl-2-(phenylamino)pyrimidin-4-ylamino)phenyl) propionamide]

The remaining lines, values behind:

SMILES: Cc1cccc(Nc2nc(Nc3cccc(NC(=O)/C=C/CN(C)C)c3)ncc2F)c1 [Compound I-4, (E)-4-(dimethylamino)-N-(3-(5-fluoro-4-(m-tolylamino)pyrimidin-2-ylamino)phenyl)but-2-enamide]
BTK Inhibition Type [1]: irreversible
covalent modification of TEC kinase by mass spectrometry [2]: reaction was complete; also recorded: covalent modification of TEC kinase at Cys449
covalent modification of ErbB4 by mass spectrometry [3]: covalent modification of ErbB4

SMILES: C=CC(=O)Nc1cccc(Nc2nc(Nc3ccccc3)ncc2C)c1 [Compound I-7, N-(3-(5-methyl-2-(phenylamino)pyrimidin-4-ylamino)phenyl) acrylamide]
BTK Inhibition Type [1]: irreversible
covalent modification of TEC kinase by mass spectrometry [2]: reaction was complete; also recorded: covalent modification of TEC kinase at Cys449
positive shift of centroid mass of BTK ([4]; intact BTK incubated 1 hr with 10× fold excess of compound): about 371.1 Da
covalent modification of BTK by mass spectrometry ([4]; intact BTK, 1 hr, 10× fold excess of compound): complete modification; also recorded: covalent modification of BTK
concentration at which >50% of BTK is occupied [5]: A (greater than 1 nM)
concentration at which >90% of BTK is occupied [5]: B (greater than 10 nM)
time BTK protein remains occupied after compound removal [6]: over 8 hours
covalent modification of JAK3 by mass spectrometry [7]: reaction was not entirely complete; also recorded: covalent modification of JAK-3 kinase at Cys909

SMILES: Cc1cnc(Nc2cccc(S(N)(=O)=O)c2)nc1Nc1ccc2c(c1)CCN(C(=O)CCl)C2 [Compound I-11, 3-(4-(2-(2-chloroacetyl)-1,2,3,4-tetrahydroisoquinolin-6-ylamino)-5-methylpyrimidin-2-ylamino)benzenesulfonamide]
covalent modification of ErbB4 by mass spectrometry [3]: covalent modification of ErbB4
covalent modification of JAK3 by mass spectrometry [7]: measurable modification
